Source: patent publication US8466104B2, “Therapeutically active alpha MSH analogues” (AbbVie Inc., priority 2005, dated 2013)

Columns and labels:
[1] = system: cisplatin induced renal failure in rats; experiment: Inhibition of cisplatin induced renal failure (experimental setup 7); type: in vivo, rat; conditions: for effect on cisplatin induced fall in GFR / effect on cisplatin induced hypomagnesemia: rats treated with cisplatin; for Plasma Mg: rats treated with cisplatin 5.0 mg/kg ip, 200 μg/kg iv test compound
Protocol: Inhibition of Cisplatin Induced Renal Failure
Rats, which previously have been instrumented with a chronic venous catheter, are placed in metabolic cages and after a period of acclimation to the metabolic cages the rats are treated with an intreperitoneal cisplatin injection 5.0 mg/kg bw in 0.5 ml 150 mM NaCl or vehicle (0.5 ml 150 mM NaCl). Five days later the rats are then returned to metabolic cages, and daily 24 h urine output and water intake are measured and collected for the next five days. All rats are then anesthetized in halothan/N2O and an arterial blood sample collected in prechilled EDTA coated vials. The blood samples are collected in a prechilled test tube with 0.5 mM EDTA, pH 7.4, and 20×10^6 IU/ml aprotinin. After centrifugation at 4° C., plasma samples are transferred to pre-chilled test tubes and stored at −20° C. for later measurements of creatinine and Magnesium (Mg). In addition to this creatinine is also measured in the urine collected in the last 24 hours period prior to the blood collection. […] Measurement of creatinine in urine and plasma is performed by use of the clinical chemistry systems VITROS 950 (Ortho-Clinical Diagnostics Inc., Johnson & Johnson, NJ) and Roche Hitachi Modular (Roche Diagnostics, Mannheim, Germany).
The rats are subjected to one of the following i.v treatments: • Vehicle: 0.5 ml 150 mM NaCl • a-MSH: 200 μg o-melanocyte stimulating hormone/kg b.w. in 0.5 ml 150 mM NaCl. • Test compound: 200 μg test compound/kg b.w. in 0.5 ml 150 mM NaCl. Treatment is given 5 minutes prior to reperfusion of the kidney and subsequently 6 and 24 hours later. Statistics
(§1) Data are presented as mean±S.E. Within group comparisons are analysed with Student's paired t test. Between group comparisons are performed by one way analysis of variance followed by Fishers Least Significant Difference test. Differences are considered significant at the 0.05 level.

[2] = system: myocardial infarction induced by LAD occlusion in rats; experiment: Inhibition of myocardial infarction size induced by 60 minutes occlusion of the left anterior descending coronary artery in rats (experimental setup 5); type: in vivo, rat; conditions: for dose at which the maximal inhibitory effect on infarction size is achieved: 200 and 1000 μg/kg tested; for effect on myocardial infarction size (in contrast to / compared to a-MSH) / myocardial infarction size, necrotic area as % of area of risk: 3 hours after LAD-reperfusion
Protocol: Inhibition of Myocardial Infarction Size, Induced by 60 Minutes Occlusion of the Left Anterior Descending Coronary Artery in Rats.
Barrier-bred and specific pathogen-free female Wistar rats (250 g) are obtained from Charles River, Hannover, Germany. The animals are housed in a temperature (22-24° C.) and moisture (40-70%) controlled room with a 12-hour light-dark cycle (light on from 6:00 A.M. to 6:00 P.M.). All animals are given free access to tap water and a pelleted rat diet containing approximately 140 mmol/kg of sodium, 275 mmol/kg potassium and 23% protein (Altromin catalogue no. 1310, Altromin International, Lage, Germany). […] One week later the Rats are anaesthetized in an inhalation chamber with 4% isoflurane in O2. After insertion of an endotracheal tube the animal is artificially ventilated with 1.0% isoflurane in O2 using af Hugo Basile Rodent ventilator. Tidal volume is 8-10 ml/kg b.w. and respiratory rate 75 […], which maintains arterial pH between 7.35 and 7.45. During surgery the animal is placed on a heated table that maintains rectal temperature at 37-38° C. Standard ECG (second lead) is measured using a Hugo Sachs ECG Coupler and collected on line at 4,000 Hz in PowerLab. After parasternal thoracotomy and opening of the pericardium the left anterior descending coronary artery (LAD) is localized visually. An atraumatic 6-0 silk suture with an occluder that allows reopening of the ligature is placed around the LAD between the pulmonary trunk and the lower right end of the left auricle. After 10 minutes the left anterior descending coronary artery (LAD) is occluded. Successful occluding is confirmed by alterations in ECG (ST-segment elevation and increase in R-wave amplitude) and by fall in MAP. Reperfusion is made after 60 minutes by opening the occluder. Control rats are sham-operated.
The rats are subjected to one of the following i.v treatments: • Vehicle: 0.5 ml 150 mM NaCl. • a-MSH: 200 μg or 1000 μg a-melanocyte stimulating hormone/kg b.w. in 0.5 ml 150 mM NaCl.
Test compound 200 μg or 1000 μg test compound/kg b.w. in 0.5 ml 150 mM NaCl.
Treatment is given 5 minutes prior to reperfusion.
The rats are kept anaesthetized after the ischemia/reperfusion and re-occluding of the LAD is performed after three hours reperfusion. During this period ECG and MAP are measured continuously. Then Evans Blue dye (1 ml; 2% w/v) is administered i.v. to determine the size of the ischemic area. The heart is removed and cut into horizontal slices to determine the size of the ischemic area and to separate the ischemic myocardium from the non-ischemic myocardium. The ischemic area is isolated and incubated in a 0.5% triphenyltetrazolium chloride solution for 10 minutes at 37° C. The size of the necrotic tissue is then measured by used of a computerized image program. An additional setup of animals are treated with buprenorphine post-surgical and returned to there cages for measurement of left ventricular end diastolic pressure (LVEDP) two weeks later in order to evaluate the effect of the pharmacological treatment on the development of congestive heart failure. LVEDP is measured using a 2F microtip catheters inserted into the left ventricle via the right carotid artery. Isoflurane concentration is adjusted to stabilize mean arterial pressure (MAP) at 85-90 mmHg.
as §1

[3] = 14 days after 60 minutes occlusion of LAD

Row | Substance | effect on cisplatin induced fall in GFR [1] | effect on cisplatin induced hypomagnesemia [1] | Plasma Mg [1] [mM] | reduction in infarction size compared to Vehicle treated rats ([2]; 200 μg/kg body weight) [%] | reduction in infarction size compared to Vehicle treated rats ([2]; 1000 μg/kg body weight) [%] | dose at which the maximal inhibitory effect on infarction size is achieved [2] [μg/kg body weight] | effect on myocardial infarction size (in contrast to / compared to a-MSH) [2] | myocardial infarction size, necrotic area as % of area of risk ([2]; 200 μg/kg body weight iv) | myocardial infarction size, necrotic area as % of area of risk ([2]; 1000 μg/kg body weight iv) | effect on myocardial infarction size (in contrast to / compared to a-MSH) ([2]; listed as SEQ ID NO: 1) | effect on LVEDP / post-infarctional congestive heart failure [2, 3] | left ventricular end diastolic pressure (LVEDP) ([2]; 14 days after 60 minutes occlusion of LAD, 200 μg/kg bw) [mmHg] | effect on myocardial infarction size (in contrast to / compared to a-MSH) ([2]; listed as SEQ ID NO: 5) | effect on myocardial infarction size (in contrast to / compared to a-MSH) ([2]; listed as SEQ ID NO: 9)
1 | Ac-Lys-Lys-Lys-Lys-Lys-Lys-Ser-Tyr-Ser-Met-Glu-His-Phe-Arg-Trp-Gly-Lys-Pro-Val-NH2 (Ac-KKKKKKSYSMEHFRWGKPV-NH2) [a-MSH analogue #1] | prevents the cisplatin induced fall in GFR | prevents cisplatin induced hypomagnesemia | 0.84 ± 0.04 | ~30 | ~30 | 200 | reduces the myocardial infarction size | 35.7±5.6 % of area of risk | 35.0±4.4 % of area of risk | reduced the infarction size to a higher degree | marked reduction in LVEDP | 10.4±2.9 | – | –
2 | Ac-Lys-Lys-Lys-Lys-Lys-Lys-Ser-Tyr-Ser-Nle-Glu-His-(D-Phe)-Arg-Trp-Gly-Lys-Pro-Val-NH2 (KKKKKKSYSXEHFRWGKPV; N-acetyl, Nle, D-Phe, C-amide) [a-MSH analogue #2] | prevents cisplatin induced hypomagnesemia as well as the cisplatin induced fall in GFR | prevents cisplatin induced hypomagnesemia | – | ~27 | – | 200 | reduces the myocardial infarction size | 37.4±5.1 % of area of risk | – | – | marked reduction in LVEDP | – | reduced the infarction size to a higher degree | –
3 | Ac-Lys-Lys-Lys-Lys-Lys-Lys-Ser-Tyr-Ser-Nle-Glu-His-D-Nal-Arg-Trp-Gly-Lys-Pro-Val-NH2 (KKKKKKSYSXEHXRWGKPV; not fully specified; N-acetyl, Nle, D-Nal, C-amide) [a-MSH analogue #3] | – | – | – | ~24 | – | 200 | reduces the myocardial infarction size | 39.0±3.4 % of area of risk | – | – | marked reduction in LVEDP | – | – | reduced the infarction size to a higher degree
4 | Ser-Tyr-Ser-Met-Glu-His-Phe-Arg-Trp-Gly-Lys-Pro-Val [a-MSH, reference compound] | – | – | 0.37 ± 0.04 | – | – | – | – | – | – | – | – | – | – | –
